From paper PMC10687071 (The Journal of Biological Chemistry, 2023)
Changes are numbered by the printed parent chain.

Assays:
[1] = molecular target: T1, Y71F mutant EAG1 channels (Mus musculus, UniProt Q60603, Y71F); test: TEVC recording, imipramine inhibition, Y71F mutant; assay type: cell-based; conditions: Y71F mutant EAG1 channel, +50 mV
T1 construct: expressed in transfected cells; host or cells: Xenopus laevis oocytes injected with cRNA
T1 sequence (Q60603 1-989 Y71F): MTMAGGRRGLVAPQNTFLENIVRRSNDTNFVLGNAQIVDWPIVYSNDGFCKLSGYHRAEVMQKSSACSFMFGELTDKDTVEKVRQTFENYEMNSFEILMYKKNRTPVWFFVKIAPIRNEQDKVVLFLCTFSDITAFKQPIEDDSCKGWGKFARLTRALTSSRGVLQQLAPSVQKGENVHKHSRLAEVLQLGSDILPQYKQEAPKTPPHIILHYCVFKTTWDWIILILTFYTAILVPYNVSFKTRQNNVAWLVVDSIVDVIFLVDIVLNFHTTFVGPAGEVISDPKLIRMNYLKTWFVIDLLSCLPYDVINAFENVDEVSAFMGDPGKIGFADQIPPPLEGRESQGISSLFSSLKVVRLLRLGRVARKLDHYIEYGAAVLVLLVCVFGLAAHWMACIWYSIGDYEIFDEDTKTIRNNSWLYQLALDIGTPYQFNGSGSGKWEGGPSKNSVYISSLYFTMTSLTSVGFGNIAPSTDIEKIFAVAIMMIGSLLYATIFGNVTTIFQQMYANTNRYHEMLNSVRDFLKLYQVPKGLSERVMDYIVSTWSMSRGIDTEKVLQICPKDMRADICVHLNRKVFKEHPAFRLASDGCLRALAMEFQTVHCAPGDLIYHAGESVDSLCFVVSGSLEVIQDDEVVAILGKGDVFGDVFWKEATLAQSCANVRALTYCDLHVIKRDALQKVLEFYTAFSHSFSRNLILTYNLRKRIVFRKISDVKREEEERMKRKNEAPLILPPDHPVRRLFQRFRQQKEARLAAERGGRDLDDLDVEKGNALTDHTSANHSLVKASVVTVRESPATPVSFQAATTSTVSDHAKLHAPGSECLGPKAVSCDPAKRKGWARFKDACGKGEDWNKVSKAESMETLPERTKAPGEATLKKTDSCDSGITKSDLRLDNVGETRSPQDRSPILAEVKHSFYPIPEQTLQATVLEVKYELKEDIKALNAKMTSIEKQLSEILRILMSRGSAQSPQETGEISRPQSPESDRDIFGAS
Description: (§1) The cDNA encoding wild-type (WT) mouse EAG1 channels in pGH19 vector was kindly provided by G. Robertson (University of Wisconsin-Madison, Madison, WI). The mutant ΔPAS EAG1 channel in pGH19 with the deletion of the PAS domain residues 2 to 130 was generated by Bio Basic Inc and verified by DNA sequencing (Genewiz). Mutant EAG1 channels with single amino acid substitutions were generated by Genewiz and verified by DNA sequencing. cRNA was transcribed using the T7 mMessage mMachine kit (Thermo Fisher Scientific). Defolliculated Xenopus laevis oocytes were purchased from Ecocyte Bioscience or Xenopus1 and injected with the cRNA using a Nanoinject II oocyte injector (Drummond).
(§2) For EAG1 current recordings, oocytes were placed into a handmade chamber containing a bath solution for the current recording. The currents were recorded using a TEVC technique with OC-725C amplifier (Warner Instruments) and pClamp11 software (Molecular Devices). The signals were digitized using Digidata 1550 (Molecular Devices). Patch pipettes were pulled from borosilicate glass and had resistances of 0.7 to 1.5 MΩ. The recording (bath) solution contained 96 mM NaCl, 4 mM KCl, 0.1 mM CaCl2, 1.8 mM MgCl2, and 5 mM HEPES, pH 7.5. The pipette solution contained 3 M KCl. […]

[2] = molecular target: T2, Y71E mutant EAG1 channels (Mus musculus, UniProt Q60603, Y71E); test: TEVC recording, imipramine inhibition, Y71E mutant; assay type: cell-based; conditions: Y71E mutant EAG1 channel, +50 mV
T2 construct: expressed in transfected cells; host or cells: Xenopus laevis oocytes injected with cRNA
T2 sequence (Q60603 1-989 Y71E): T1 sequence (Q60603 1-989 Y71F) with F71E
Description: as §1, §2

IC50 [1]: 58 ± 3.7 µM
IC50 [2]: 28.5 ± 1.4 µM
Compound: CN(C)CCCN1c2ccccc2CCc2ccccc21 [imipramine]
